Test results from patent publication US20140024596A1, “DISEASE INHIBITING AGENT” (NITTA GELATIN INC., priority 2010, published 2014).
Non-standard residues stand in square brackets, D forms with d. Residues, ends and D or L forms follow the SMILES beside them. Hyp = O=C(O)[C@@H]1C[C@@H](O)CN1

Legend:
in vivo = settings: male, Wistar, rat, po, 215 nmol/10 mL
Procedure: Male Wistar rats (170 g) were fasted overnight before subjected to the experiment.
As a test method, heart and portal vein of each rat were attached with a cannula to make one-directional perfusion.
To a perfusion sample solution (5.0 mL) collected from the portal vein was added 0.5 mL of 30% sulfosalicylic acid and stirred vigorously, and left overnight in a refrigerator. This sample was centrifuged at 3000 rpm for 10 minutes, to remove protein. For the supernatant of centrifugation, an amount of hydroxyproline in 0.5 mL was colorimetrically quantified, and an amount of free-type Hyp was obtained.
Further, 3.0 mL of the supernatant of centrifugation was weighed into a screw-top test tube, and thereto an equivalent amount of concentrated hydrochloric acid was added, and hydrolyzed at 110° C. for 24 hours. After concentrating and drying the resultant in an evaporator, and removing the hydrochloric acid, the solid was dissolved in 5 mL of distilled water, and several drops of a saturated lithium hydroxide solution was added thereto to adjust pH at 5 to 7, and the volume was fixed at 10 mL. For 2 mL of this solution, an amount of hydroxyproline was colorimetrically quantified to obtain a total Hyp amount. The value obtained by subtracting the amount of free-type Hyp before hydrolysis from the total Hyp amount after hydrolysis is an amount of peptide-form Hyp. From this amount of peptide-form Hyp, a quantitative value of absorption of each peptide molecule into rat portal vein perfusate in the test sample was first determined.
In the above description, the colorimetric quantification of the amount of hydroxyproline was conducted by the Firschein and Shill method described concretely in Evaluation test 4.
Also, identification and quantification of OG, PO, Ala-Hyp, and Ser-Hyp were conducted by HPLC analysis and mass spectrometry (LC/MS/MS) as will be described later.
Analysis of the peptide molecules in the perfusate was conducted by reverse-phase HPLC analysis. As a HPLC device, an LCSS-905 system manufactured by JASCO Corporation, consisting of a liquid feeding pump, a degasser, an automatic sampler, a column open, a UV spectrophotometer, a printer, and a system controller was used. As a reverse-phase column, Nova Pak C18 (3.9×150 mm) was used.
A linear gradient mobile phase of a 0.1% TFA-containing acetonitrile-water system was used, and the injection amount of the sample was 70 μL and the flow rate was 1 mL/min.
As a HPLC device, U980HPLC (manufactured by JASCO Corporation) attached with an ODS(C18) column (Mightysil RP-18, 2×250 mm, manufactured by Kanto Chemical Co Ltd) was used. As a mobile phase solvent, a 0.2% formic acid-containing acetonitrile-water system was used, and the concentration of acetonitrile was increased from 0% to 40% over 40 minutes by a linear gradient, and washed with 100% acetonitrile for 10 minutes. The sample injection amount was 10 μL, and the column temperature was 40° C.
MS analysis was conducted by a MS/MS system using a Quattro LC mass spectrophotometer (Micromass, Manchester, UK) according to a four-channel Multiple Reaction Monitoring method. To be more specific, the elute from HPLC was monitored by m/z being [M+H]^+ and by m/s of its fragment ion species. The monitoring was conducted by using [M+H]^+ m/z: 229.1>132.1 for PO, [M+H]^+ m/z: 219.1>132.1 for Ser-Hyp, [M+H]^+ m/z: 203.1>132.1 for Ala-Hyp, and [M+H]^+ m/z: 189.1>86.1 for OG.
The perfusate was treated with sulfosalicylic acid in a final concentration of 3%, to remove protein. The supernatant liquid was lyophilized and 10 mg of a dry powder was dissolved in distilled water, and subjected to a positive ion exchange resin column to obtain an ammonia elution fraction. After removing the solvent, the fraction was dissolved in distilled water and subjected to LC/MS/MS analysis.

[1] = tested on: osteoclast (mouse primary bone marrow cell culture); experiment: Evaluation Test 1: osteoclast differentiation culture on plastic dish (TRAP-positive multinucleated giant cells); type: cell-based; settings: final concentration 625 μM, 6 days culture, control (blank) = 100, n = 6
Procedure: Evaluation was made in conformance with an osteoclast differentiation culture method by Kobayashi Y. et al. [J. Bone Miner. Metab. (2004) 22: p. 318-328]. […] As a control, TRAP inhibiting activity when no peptide was added (blank) was also examined.

[2] = tested on: osteoclast (precursor cells of osteoclasts and bone marrow stromal cells on ivory piece); experiment: Evaluation Test 1: Pit assay, osteoclast cultured on ivory piece; type: cell-based, mouse; settings: control (blank) = 100, n = 6; for Relative number of TRAP-positive multinucleated giant cells (osteoclasts) by cultivation on ivory piece (%): cultured about 1 week on ivory piece; for Relative number of Pit (%): resorption cavities on ivory piece, about 1 week
Procedure: Further, the inhibition degree of differentiation and activation of osteoclast by each of the peptide molecules, and amino acids was evaluated by the following Pit assay. In brief, the Pi assay in which osteoclast is cultured on an ivory piece was conducted in conformance with Kakudo S, et al J. Bone Miner. Metab. (1996) 14: 129-136. The concrete procedure is as follows. […] Then, after removing the cells from the ivory piece with a silicone rubber policeman, the ivory piece was stained with an acid hematoxylin solution for several minutes. At this time, the number of TRAP staining positive multinucleated giant cells (osteoclast) was counted by TRAP staining, and a relative number with respect to the number of cells in control (blank) was calculated. Then, the Pit number (number of resorption cavity) by osteoclast was counted under a microscope, and the degree of inhibiting osteoclast by each peptide to be tested was indicated by a relative ratio to blank (control).

Row | SMILES | level at time molar (in vivo) [nM] | also measured
1 | O=C(O)[C@@H]1C[C@@H](O)CN1C(=O)[C@@H]1CCCN1 [PO, Pro-Hyp] (H-Pro-[Hyp]-OH) | 21300 | –
2 | O=C(O)CNC(=O)[C@@H]1C[C@@H](O)CN1 [OG, Hyp-Gly] (H-[Hyp]-Gly-OH) | 9800 | –
3 | NCC(=O)N1CCC[C@H]1C(=O)N1C[C@H](O)C[C@H]1C(=O)NCC(=O)N1CCC[C@H]1C(=O)N1C[C@H](O)C[C@H]1C(=O)NCC(=O)N1CCC[C@H]1C(=O)N1C[C@H](O)C[C@H]1C(=O)NCC(=O)O [G(POG)3, Gly-(Pro-Hyp-Gly)3] (H-GP[Hyp]GP[Hyp]GP[Hyp]G-OH) | 80 | –
4 | O=C(O)CNC(=O)[C@@H]1C[C@@H](O)CN1C(=O)[C@@H]1CCCN1C(=O)CNC(=O)[C@@H]1C[C@@H](O)CN1C(=O)[C@@H]1CCCN1C(=O)CNC(=O)[C@@H]1C[C@@H](O)CN1C(=O)[C@@H]1CCCN1 [(POG)3, (Pro-Hyp-Gly)3] (H-P[Hyp]GP[Hyp]GP[Hyp]G-OH) | 900 | –
5 | NCC(=O)N1CCC[C@H]1C(=O)N1C[C@H](O)C[C@H]1C(=O)NCC(=O)N1CCC[C@H]1C(=O)N1C[C@H](O)C[C@H]1C(=O)NCC(=O)O [G(POG)2, Gly-(Pro-Hyp-Gly)2] (H-GP[Hyp]GP[Hyp]G-OH; N-terminus and C-terminus assumed) | 100 | –
6 | O=C(O)CNC(=O)[C@@H]1C[C@@H](O)CN1C(=O)[C@@H]1CCCN1C(=O)CNC(=O)[C@@H]1C[C@@H](O)CN1C(=O)[C@@H]1CCCN1C(=O)CNC(=O)[C@@H]1C[C@@H](O)CN1C(=O)[C@@H]1CCCN1C(=O)CNC(=O)[C@@H]1C[C@@H](O)CN1C(=O)[C@@H]1CCCN1 [(POG)4, (Pro-Hyp-Gly)4] (H-P[Hyp]GP[Hyp]GP[Hyp]GP[Hyp]G-OH) | 800 | –
7 | O=C(O)[C@@H]1CCCN1 [Pro, proline] | – | Relative area of TRAP-positive multinucleated giant cells (osteoclasts) by cultivation on plastic dish (%) [1]: 125 ± 69%; Relative number of TRAP-positive multinucleated giant cells (osteoclasts) by cultivation on plastic dish (%) [1]: 119 ± 44%; Relative number of TRAP-positive multinucleated giant cells (osteoclasts) by cultivation on ivory piece (%) [2]: 119 ± 20%; Relative number of Pit (%) [2]: 121 ± 23%
8 | N[C@@H](CO)C(=O)N1C[C@H](O)C[C@H]1C(=O)O [Ser-Hyp] (H-Ser-[Hyp]-OH) | 700 | –
9 | C[C@H](N)C(=O)N1C[C@H](O)C[C@H]1C(=O)O [Ala-Hyp] (H-Ala-[Hyp]-OH) | 1200 | –
10 | O=C(O)[C@@H]1C[C@@H](O)CN1 [Hyp, hydroxyproline] | – | Relative area of TRAP-positive multinucleated giant cells (osteoclasts) by cultivation on plastic dish (%) [1]: 117 ± 13 %; Relative number of TRAP-positive multinucleated giant cells (osteoclasts) by cultivation on plastic dish (%) [1]: 126 ± 4 %; Relative number of TRAP-positive multinucleated giant cells (osteoclasts) by cultivation on ivory piece (%) [2]: 141 ± 9 %; Relative number of Pit (%) [2]: 131 ± 11 %
11 | O=C(O)CNC(=O)[C@@H]1C[C@@H](O)CN1C(=O)[C@@H]1CCCN1C(=O)CNC(=O)[C@@H]1C[C@@H](O)CN1C(=O)[C@@H]1CCCN1 [(POG)2, (Pro-Hyp-Gly)2] (H-P[Hyp]GP[Hyp]G-OH; N-terminus and C-terminus assumed) | 1100 | –
12 | N=C(N)NCCC[C@H](NC(=O)CNC(=O)[C@@H]1CCCN1C(=O)[C@H](CCCCN)NC(=O)CNC(=O)[C@@H]1CCCN1C(=O)[C@H](Cc1c[nH]cn1)NC(=O)CNC(=O)[C@H](CC(=O)O)NC(=O)[C@H](CCCCN)NC(=O)[C@@H](N)CCC(=O)O)C(=O)N1C[C@H](O)C[C@H]1C(=O)NCC(=O)N[C@@H](CCC(=O)O)C(=O)O [EKDGHPGKPGROGE] (H-EKDGHPGKPGR[Hyp]GE-OH) | 100 | –
13 | CC(C)C[C@H](NC(=O)[C@H](Cc1c[nH]cn1)NC(=O)CNC(=O)[C@H](CC(=O)O)NC(=O)CNC(=O)[C@@H](N)CCC(=O)O)C(=O)NCC(=O)N[C@@H](CCCCN)C(=O)N1CCC[C@H]1C(=O)NCC(=O)N[C@@H](CCCNC(=N)N)C(=O)N1C[C@H](O)C[C@H]1C(=O)NCC(=O)N[C@@H](CCC(=O)O)C(=O)O [EGDGHLGKPGROGE] (H-EGDGHLGKPGR[Hyp]GE-OH) | 100 | –
